Where two headings read alike, the source gives them in different places.
Legend:
Acetylcholinesterase = molecular target: T1, Acetylcholinesterase (Homo sapiens, UniProt P22303); assay: SafetyScreen44 enzyme inhibition; type: biochemical; details: read-out: % Inh (percent inhibition of the activity of the control enzyme)
T1 construct: purchased Eurofins Cerep (SafetyScreen44)
Protocol: (§1) The SafetyScreen44® assay was carried out by Eurofins (Poitiers, France) according to the service-provider’s protocol. CPL500036 (1 µM) was tested against a panel of […] potential off-targets proteins, including G protein-coupled receptors (GPCRs), transporters, ion channels, nuclear receptors kinases and other non-kinase enzymes, by use of a set of the binding assays.
(§2) Binding of CPL500036 was calculated as the percent binding inhibition of a radioactively labeled ligand specific for each target. Enzyme inhibition of CPL500036 was calculated as the percent inhibition of the activity of the control enzyme. “No interaction” was denoted if inhibition ≤ 25% of specific binding of the control. Determination of muscarinic acetylcholine receptor (M2) activity induced by CPL500036 (antagonism and agonism) was undertaken in human recombinant CHO cells by measurement of the intracellular cAMP level according to the service-provider’s protocol. IC50 (concentration causing a half-maximal inhibition of specific binding of the control) or EC50 (concentration causing a half-maximal response of specific binding of the control) and the Hill coefficient were determined by non-linear regression analysis of the competition curves generated with mean replicate values using Hill-equation curve fitting with software developed at Cerep (Celle-Lévescault, France).

phosphodiesterase 4 = molecular target: T2, phosphodiesterase 4 (Homo sapiens, UniProt Q08499); assay: SafetyScreen44 enzyme inhibition; type: biochemical; details: read-out: % Inh (percent inhibition of the activity of the control enzyme)
T2 construct: purchased Eurofins Cerep (SafetyScreen44)
Protocol: as §1, §2

Cyclooxygenase 1 = molecular target: T3, Cyclooxygenase 1 (Homo sapiens, UniProt P23219); assay: SafetyScreen44 enzyme inhibition; type: biochemical; details: read-out: % Inh (percent inhibition of the activity of the control enzyme)
T3 construct: purchased Eurofins Cerep (SafetyScreen44)
Protocol: as §1, §2

[1] = molecular target: T4, lymphocyte-specific protein tyrosine kinase (Homo sapiens, UniProt P06239); assay: SafetyScreen44 enzyme inhibition; type: biochemical; details: read-out: % Inh (percent inhibition of the activity of the control enzyme)
T4 construct: purchased Eurofins Cerep (SafetyScreen44)
Protocol: as §1, §2

Cyclooxygenase 2 = molecular target: T5, Cyclooxygenase 2 (Homo sapiens, UniProt P35354); assay: SafetyScreen44 enzyme inhibition; type: biochemical; details: read-out: % Inh (percent inhibition of the activity of the control enzyme)
T5 construct: purchased Eurofins Cerep (SafetyScreen44)
Protocol: as §1, §2

phosphodiesterase 3A = molecular target: T6, phosphodiesterase 3A (Homo sapiens, UniProt Q14432); assay: SafetyScreen44 enzyme inhibition; type: biochemical; details: read-out: % Inh (percent inhibition of the activity of the control enzyme)
T6 construct: purchased Eurofins Cerep (SafetyScreen44)
Protocol: as §1, §2

[2] = Hepatocyte stability assay; type: in vitro ADME; details: data not shown, n = 6
[3] = tested on: N-Methyl-D-aspartic acid receptor; assay: SafetyScreen44 radioligand binding; set-up: species or system rat; details: 1 μM
Protocol: as §1, §2

[4] = tested on: α-dendrotoxin sensitive potassium channel; assay: SafetyScreen44 radioligand binding; set-up: species or system rat; details: 1 μM
Protocol: as §1, §2

[5] = tested on: voltage-gated sodium channels site 2; assay: SafetyScreen44 radioligand binding; set-up: species or system rat; details: 1 μM
Protocol: as §1, §2

[6] = tested on: calcium channel, voltage-dependent, L type; assay: SafetyScreen44 radioligand binding; set-up: species or system rat; details: 1 μM
Protocol: as §1, §2

[7] = tested on: benzodiazepine receptor (GABAA); assay: SafetyScreen44 radioligand binding; set-up: species or system rat; details: 1 μM; agonist radioligand
Protocol: as §1, §2

MTT cytotoxicity assay = type: cell-based; details: human, n = 3
Protocol: The cytotoxicity of CPL500036 was evaluated in human non-small-cell lung cancer (NCI-H1299, ATCC® CRL-5803™), human hepatocellular carcinoma (Hep G2 [HEPG2], ATCC® HB-8065™) and human neuroblastoma (SH-SY5Y, ECACC, 94030304) cells using the 3-(4,5-dimethylthiazol-2-yl)-2,5-diphenyltetrazolium bromide (MTT) assay (Invitrogen, Carlsbad, CA, United States). Cells were seeded in an appropriate complete growth medium (following manufacturer recommendations) onto 96-well plates. After overnight incubation (37°C, 5% CO2) the medium was replaced with fresh medium (100 μl/well) containing the desired concentration of CPL500036 (8 nM–60 μM, diluent factor = 3), positive control or vehicle control (1% dimethyl sulfoxide (DMSO)) followed by incubation for 72 h (37°C, 5% CO2). Then, 25 μl of filtered (filter size = 0.22 μm) MTT solution (12 mM) in phosphate-buffered saline (PBS) was added to each well, including blank control (medium without cells) followed by incubation for 2 h (37°C, 5% CO2). After that, formazan crystals were dissolved in DMSO (100 μl/well). The absorbance was measured at 540 nm (A540, substrate wavelength) and 690 nm (A690, reference wavelength) using an automatic microplate reader (Multiskan™ GO; ThermoFisher Scientific). The metabolic activity of cells in the presence of vehicle control (1% DMSO) was considered to be 100%, and we calculated the difference between A540 and A690. IC50 was calculated using Prism 7.05.

[8] = tested on: Salmonella typhimurium TA1535; details: CPL500036 5000µg/plate, n=3
Sprague–Dawley rats = assay: Catalepsy bar test; type: in vivo; details: p.o.
Protocol: Sprague–Dawley rats (∼300 g; Charles River Laboratories, Wilmington, MA, United States) (n = 8–12/group) were treated (p.o.) with vehicle or CPL500036 (0.15 mg/kg, 0.3 mg/kg, 0.6 mg/kg or 2 mg/kg). As a positive control causing catalepsy, haloperidol (1 mg/kg, i.p.) was employed. One hour following drug administration, catalepsy (prolonged maintenance of an externally imposed abnormal posture) was assessed using the bar test as described by Ionova and Severtsev ([Ionov and Severtsev, 2012]). Testing was accomplished by placing each rat in an upright position with his forepaws resting on a horizontal bar (0.9 cm in diameter) suspended in a wooden frame 7.5 cm above the cage floor. The rat was allowed to keep his forepaws on the bar for a measurement lasting for 30 s. The latency to remove both forepaws from the bar was measured with a hand-held stopwatch. The test was repeated for each rat every 30 min up to 240 min. Rats were returned to their home cages between tests. Each rat was tested twice, at an interval of 1 week.

[9] = With metabolic activation (+S9 mix), 2AA 2µg/plate
[10] = Without metabolic activation (-S9 mix), SAZ 2µg/plate

T5 sequence (P35354 18-604): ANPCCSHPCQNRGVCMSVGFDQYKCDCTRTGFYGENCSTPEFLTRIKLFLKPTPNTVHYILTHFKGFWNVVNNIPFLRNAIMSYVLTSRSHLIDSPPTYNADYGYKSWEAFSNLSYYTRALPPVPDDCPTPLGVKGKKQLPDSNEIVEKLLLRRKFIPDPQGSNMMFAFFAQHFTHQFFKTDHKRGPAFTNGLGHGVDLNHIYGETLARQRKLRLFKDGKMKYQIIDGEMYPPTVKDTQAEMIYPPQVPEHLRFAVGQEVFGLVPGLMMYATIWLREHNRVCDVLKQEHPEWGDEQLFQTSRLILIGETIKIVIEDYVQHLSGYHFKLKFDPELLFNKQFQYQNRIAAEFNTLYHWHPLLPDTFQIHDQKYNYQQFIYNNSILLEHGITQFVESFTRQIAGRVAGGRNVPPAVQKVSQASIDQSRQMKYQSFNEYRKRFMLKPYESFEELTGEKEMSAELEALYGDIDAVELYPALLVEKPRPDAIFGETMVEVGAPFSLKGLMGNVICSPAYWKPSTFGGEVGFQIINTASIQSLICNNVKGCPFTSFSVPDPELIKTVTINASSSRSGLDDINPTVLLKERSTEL
T3 sequence (P23219 24-599): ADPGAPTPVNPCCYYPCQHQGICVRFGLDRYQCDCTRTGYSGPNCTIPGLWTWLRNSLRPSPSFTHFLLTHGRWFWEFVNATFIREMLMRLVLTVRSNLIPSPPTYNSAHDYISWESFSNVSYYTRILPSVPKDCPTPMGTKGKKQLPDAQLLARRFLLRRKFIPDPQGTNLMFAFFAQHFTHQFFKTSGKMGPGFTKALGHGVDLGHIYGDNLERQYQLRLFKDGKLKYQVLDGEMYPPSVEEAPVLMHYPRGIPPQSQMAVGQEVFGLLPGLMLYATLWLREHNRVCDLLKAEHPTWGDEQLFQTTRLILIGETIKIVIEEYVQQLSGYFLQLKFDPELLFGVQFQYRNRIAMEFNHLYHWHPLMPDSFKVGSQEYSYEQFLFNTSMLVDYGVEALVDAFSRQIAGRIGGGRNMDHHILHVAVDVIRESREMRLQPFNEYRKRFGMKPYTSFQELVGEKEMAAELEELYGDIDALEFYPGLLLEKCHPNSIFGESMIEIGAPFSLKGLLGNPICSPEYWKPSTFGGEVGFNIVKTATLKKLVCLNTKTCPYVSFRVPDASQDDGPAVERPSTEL
T6 sequence (Q14432 whole entry): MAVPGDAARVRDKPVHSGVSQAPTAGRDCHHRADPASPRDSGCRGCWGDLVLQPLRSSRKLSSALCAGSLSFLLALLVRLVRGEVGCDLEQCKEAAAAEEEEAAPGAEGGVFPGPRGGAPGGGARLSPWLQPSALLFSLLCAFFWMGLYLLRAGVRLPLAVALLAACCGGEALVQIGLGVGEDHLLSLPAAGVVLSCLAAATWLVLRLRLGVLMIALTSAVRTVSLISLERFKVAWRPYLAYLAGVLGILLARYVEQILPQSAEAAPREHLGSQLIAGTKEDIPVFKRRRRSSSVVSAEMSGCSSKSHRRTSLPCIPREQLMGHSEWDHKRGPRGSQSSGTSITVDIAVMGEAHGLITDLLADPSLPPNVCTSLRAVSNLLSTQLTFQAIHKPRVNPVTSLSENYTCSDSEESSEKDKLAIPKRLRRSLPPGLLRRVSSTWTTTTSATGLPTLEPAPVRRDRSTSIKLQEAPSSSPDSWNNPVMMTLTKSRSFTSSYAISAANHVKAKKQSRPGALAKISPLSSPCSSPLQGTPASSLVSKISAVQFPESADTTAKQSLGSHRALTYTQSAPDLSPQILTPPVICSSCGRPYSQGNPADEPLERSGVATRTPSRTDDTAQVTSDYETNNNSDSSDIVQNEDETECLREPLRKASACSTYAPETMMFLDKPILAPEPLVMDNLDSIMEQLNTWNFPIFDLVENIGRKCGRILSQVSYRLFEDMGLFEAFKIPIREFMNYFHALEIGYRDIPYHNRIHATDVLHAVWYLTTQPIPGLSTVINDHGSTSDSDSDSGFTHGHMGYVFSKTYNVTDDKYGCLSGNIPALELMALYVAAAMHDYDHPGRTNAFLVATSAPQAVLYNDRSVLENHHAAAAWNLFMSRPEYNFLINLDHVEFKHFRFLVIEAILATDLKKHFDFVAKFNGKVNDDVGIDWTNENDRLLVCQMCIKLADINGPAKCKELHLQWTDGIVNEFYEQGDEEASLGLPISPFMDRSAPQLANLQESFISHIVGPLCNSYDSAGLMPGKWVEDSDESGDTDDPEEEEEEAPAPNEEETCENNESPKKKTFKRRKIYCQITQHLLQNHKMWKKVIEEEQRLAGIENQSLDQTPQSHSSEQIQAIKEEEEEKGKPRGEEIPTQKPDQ
T1 sequence (P22303 32-614): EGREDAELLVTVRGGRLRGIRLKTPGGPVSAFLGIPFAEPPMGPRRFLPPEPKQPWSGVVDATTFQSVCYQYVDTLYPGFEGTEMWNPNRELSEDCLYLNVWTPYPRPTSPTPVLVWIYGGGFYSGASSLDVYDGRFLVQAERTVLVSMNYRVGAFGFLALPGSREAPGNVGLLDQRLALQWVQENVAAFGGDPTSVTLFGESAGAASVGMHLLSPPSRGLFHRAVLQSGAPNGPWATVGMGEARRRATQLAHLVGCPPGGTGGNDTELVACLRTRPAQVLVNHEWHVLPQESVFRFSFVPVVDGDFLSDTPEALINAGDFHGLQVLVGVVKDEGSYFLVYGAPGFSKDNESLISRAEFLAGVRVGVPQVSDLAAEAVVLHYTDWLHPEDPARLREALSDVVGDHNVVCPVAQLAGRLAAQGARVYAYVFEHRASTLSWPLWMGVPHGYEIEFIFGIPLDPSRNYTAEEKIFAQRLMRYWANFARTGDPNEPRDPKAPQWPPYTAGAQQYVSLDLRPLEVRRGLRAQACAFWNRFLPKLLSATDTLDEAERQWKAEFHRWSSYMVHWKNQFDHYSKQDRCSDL
T2 sequence (Q08499 whole entry): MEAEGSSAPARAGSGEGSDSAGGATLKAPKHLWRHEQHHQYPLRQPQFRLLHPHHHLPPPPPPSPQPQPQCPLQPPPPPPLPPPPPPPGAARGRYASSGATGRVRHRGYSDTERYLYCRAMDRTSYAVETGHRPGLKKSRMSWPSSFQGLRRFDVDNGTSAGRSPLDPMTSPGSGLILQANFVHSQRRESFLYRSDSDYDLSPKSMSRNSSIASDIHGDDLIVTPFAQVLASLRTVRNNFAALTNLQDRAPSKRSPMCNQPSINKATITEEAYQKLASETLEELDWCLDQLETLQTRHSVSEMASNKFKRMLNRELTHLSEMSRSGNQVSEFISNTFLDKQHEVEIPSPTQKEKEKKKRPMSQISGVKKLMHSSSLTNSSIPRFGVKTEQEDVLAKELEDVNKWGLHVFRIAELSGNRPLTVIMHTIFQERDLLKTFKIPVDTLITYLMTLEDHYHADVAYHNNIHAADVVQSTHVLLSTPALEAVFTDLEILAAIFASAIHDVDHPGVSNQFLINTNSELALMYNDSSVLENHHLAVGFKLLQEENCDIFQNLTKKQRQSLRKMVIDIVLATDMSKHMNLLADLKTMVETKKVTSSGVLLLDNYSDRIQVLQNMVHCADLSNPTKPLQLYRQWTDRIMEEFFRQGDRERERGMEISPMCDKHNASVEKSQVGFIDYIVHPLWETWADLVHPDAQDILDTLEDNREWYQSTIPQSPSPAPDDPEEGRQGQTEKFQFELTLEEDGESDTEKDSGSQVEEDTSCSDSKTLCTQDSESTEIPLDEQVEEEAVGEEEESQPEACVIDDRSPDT
T4 sequence (P06239 whole entry): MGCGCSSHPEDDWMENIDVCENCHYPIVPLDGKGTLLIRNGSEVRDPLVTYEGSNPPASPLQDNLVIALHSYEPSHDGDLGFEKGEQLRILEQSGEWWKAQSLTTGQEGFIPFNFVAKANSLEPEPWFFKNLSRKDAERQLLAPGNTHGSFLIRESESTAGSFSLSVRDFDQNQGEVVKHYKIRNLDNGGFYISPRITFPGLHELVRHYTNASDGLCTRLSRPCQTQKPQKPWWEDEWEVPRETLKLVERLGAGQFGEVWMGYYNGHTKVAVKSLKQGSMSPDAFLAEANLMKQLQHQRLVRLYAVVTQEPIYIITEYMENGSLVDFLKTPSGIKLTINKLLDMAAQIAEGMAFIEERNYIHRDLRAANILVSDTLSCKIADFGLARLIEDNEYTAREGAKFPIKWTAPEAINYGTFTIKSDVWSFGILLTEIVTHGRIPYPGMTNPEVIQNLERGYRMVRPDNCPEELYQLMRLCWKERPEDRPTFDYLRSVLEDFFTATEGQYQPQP

In the case of `Cc1ncc(C)n2nc(-c3ccn4cc(-c5ccccc5)nc4n3)nc12` [CPL500036, 7-[5,8-Dimethyl-(1,2,4)triazolo (1,5-a)pyrazin-2-yl]-2-phenylimidazo (1,2-a) pyrimidine], the inhibition at 1 µM (Acetylcholinesterase) is reported as 13.7%, the inhibition at 1 µM (phosphodiesterase 4) is reported as 0.8% and the inhibition at 1 µM (Cyclooxygenase 1) is reported as -9.5%. For the same compound, the inhibition at 1 µM [1] was -1.9%, the inhibition at 1 µM (Cyclooxygenase 2) was -0.4% and the inhibition at 1 µM (phosphodiesterase 3A) was -15.2%. The active metabolites [2] was “no active metabolites were identified”, the “% Inh (% inhibition of control specific binding)” value [3] was 4.4% and the “% Inh (% inhibition of control specific binding)” value [4] was −10.2%. The “% Inh (% inhibition of control specific binding)” value [5] was −1.3%, the “% Inh (% inhibition of control specific binding)” value [6] was −7.2% and the “% Inh (% inhibition of control specific binding)” value [7] was −27.7%. The IC50 at 72 h (MTT cytotoxicity assay; HepG2 cells, HepG2, 72 h) was over 60 µM, the IC50 at 72 h (MTT cytotoxicity assay; NCI-H1299 cells, H1299, 72 h) was over 60 µM and the IC50 at 72 h (MTT cytotoxicity assay; SH-SY5Y cells) was over 60 µM. For the same compound, the Mutation rate [8, 9] was 0.6, the “Revertants Mean±SD” value [8, 9] was 8.3±5.13 and the Mutation rate [8, 10] was 1.13. For the same compound, the “Revertants Mean±SD” value [8, 10] was 12.0±5.57, the “catalepsy, bar test” value (Sprague–Dawley rats; 0.15 mg/kg, 60 min–240 min after administration) was “did not induce catalepsy” and the “catalepsy, bar test” value (Sprague–Dawley rats; 0.3 mg/kg, appeared only at 210 min and 240 min) was “low cataleptogenic effect”. For the same compound, the “catalepsy, bar test” value (Sprague–Dawley rats; 0.6 mg/kg, 60 min–240 min after administration) was “apparent 120 min–240 min following administration, but did not achieve the level elicited by haloperidol”, the “catalepsy, bar test” value (Sprague–Dawley rats; 2 mg/kg, compared with haloperidol 1 mg/kg, i.p.) was “strong cataleptogenic effect comparable with that of haloperidol” and the “minimum effective dose (MED) needed to elicit catalepsy” value (Sprague–Dawley rats; from AUC data of the duration of catalepsy) was 0.6 mg/kg.

Reference: publication PMC9681820, “A PDE10A inhibitor CPL500036 is a novel agent modulating striatal function devoid of most neuroleptic side-effects” (Frontiers in Pharmacology, 2022)
